Data reported in ChEMBL document CHEMBL1201862, “PubChem BioAssay data set” (2004).
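Results reflect a 48-hour exposure of cells in 96-well plates to compound at five concentrations. GI50 marks 50% less growth.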 Activity calls are given as the source filed them. Rule as the data show it: active = GI50 up to about 1.1 µM and inactive = higher.

Key:
Assay in all cases: DTP human tumour cell line panel, 48 h
OVCAR-3 = test system: OVCAR-3
SR = test system: SR
PC-3 = test system: PC-3
HCC 2998 = test system: HCC 2998
SK-OV-3 = test system: SK-OV-3
SF-268 = test system: SF-268
OVCAR-5 = test system: OVCAR-5
MOLT-4 = test system: MOLT-4
DU-145 = test system: DU-145
SNB-19 = test system: SNB-19
KM12 = test system: KM12
BT-549 = test system: BT-549
HCT-116 = test system: HCT-116
NCI-H460 = test system: NCI-H460
NCI-H522 = test system: NCI-H522
HOP-92 = test system: HOP-92
UO-31 = test system: UO-31
SN12C = test system: SN12C
U-251 = test system: U-251
T47D = test system: T47D
A498 = test system: A498
NCI-H23 = test system: NCI-H23
SNB-75 = test system: SNB-75
MDA-MB-231 = test system: MDA-MB-231
MDA-MB-435 = test system: MDA-MB-435
MCF7 = test system: MCF7
NCI/ADR-RES = test system: NCI/ADR-RES
EKVX = test system: EKVX
HCT-15 = test system: HCT-15
OVCAR-8 = test system: OVCAR-8
786-0 = test system: 786-0
SF-295 = test system: SF-295
RPMI-8226 = test system: RPMI-8226
SF-539 = test system: SF-539
UACC-62 = test system: UACC-62
Hs-578T = test system: Hs-578T
IGROV-1 = test system: IGROV-1
SK-MEL-2 = test system: SK-MEL-2
NCI-H226 = test system: NCI-H226
K562 = test system: K562
M14 = test system: M14
ACHN = test system: ACHN
CCRF-CEM = test system: CCRF-CEM
SK-MEL-28 = test system: SK-MEL-28
TK-10 = test system: TK-10
HT-29 = test system: HT-29
SK-MEL-5 = test system: SK-MEL-5
OVCAR-4 = test system: OVCAR-4
CAKI-1 = test system: CAKI-1
SW-620 = test system: SW-620
HL-60 = test system: HL-60
A549 = test system: A549
COLO 205 = test system: COLO 205
RXF 393 = test system: RXF 393
UACC-257 = test system: UACC-257
Malme-3M = test system: Malme-3M
HOP-62 = test system: HOP-62
LOX IMVI = test system: LOX IMVI

## Cc1sc(N)c(S(=O)(=O)c2ccccc2)c1C
OVCAR-3
  GI50: 80.5 µM (inactive)
SR
  GI50: > 100 µM (inactive)
PC-3
  GI50: > 100 µM (inactive)
HCC 2998
  GI50: > 100 µM (inactive)
SK-OV-3
  GI50: > 100 µM (inactive)
SF-268
  GI50: > 100 µM (inactive)
OVCAR-5
  GI50: > 100 µM (inactive)
MOLT-4
  GI50: > 100 µM (inactive)
DU-145
  GI50: > 100 µM (inactive)
SNB-19
  GI50: > 100 µM (inactive)
KM12
  GI50: > 100 µM (inactive)
BT-549
  GI50: > 100 µM (inactive)
HCT-116
  GI50: > 100 µM (inactive)
NCI-H460
  GI50: > 100 µM (inactive)
NCI-H522
  GI50: > 100 µM (inactive)
HOP-92
  GI50: > 100 µM (inactive)
UO-31
  GI50: > 100 µM (inactive)
SN12C
  GI50: > 100 µM (inactive)
U-251
  GI50: > 100 µM (inactive)
T47D
  GI50: > 100 µM (inactive)
A498
  GI50: > 100 µM (inactive)
NCI-H23
  GI50: > 100 µM (inactive)
SNB-75
  GI50: > 100 µM (inactive)
MDA-MB-231
  GI50: > 100 µM (inactive)
MDA-MB-435
  GI50: > 100 µM (inactive)
MCF7
  GI50: > 100 µM (inactive)
NCI/ADR-RES
  GI50: > 100 µM (inactive)
EKVX
  GI50: > 100 µM (inactive)
HCT-15
  GI50: > 100 µM
OVCAR-8
  GI50: > 100 µM (inactive)
786-0
  GI50: > 100 µM (inactive)
SF-295
  GI50: > 100 µM (inactive)
RPMI-8226
  GI50: > 100 µM (inactive)
SF-539
  GI50: 5.13 µM (inactive)
UACC-62
  GI50: > 100 µM (inactive)
Hs-578T
  GI50: > 100 µM (inactive)
IGROV-1
  GI50: > 100 µM (inactive)
SK-MEL-2
  GI50: > 100 µM (inactive)
NCI-H226
  GI50: > 100 µM (inactive)
K562
  GI50: > 100 µM (inactive)
M14
  GI50: > 100 µM (inactive)
ACHN
  GI50: > 100 µM (inactive)
CCRF-CEM
  GI50: > 100 µM (inactive)
SK-MEL-28
  GI50: > 100 µM (inactive)
TK-10
  GI50: > 100 µM (inactive)
HT-29
  GI50: > 100 µM (inactive)
SK-MEL-5
  GI50: > 100 µM (inactive)
OVCAR-4
  GI50: > 100 µM (inactive)
CAKI-1
  GI50: > 100 µM (inactive)
SW-620
  GI50: > 100 µM (inactive)
HL-60
  GI50: > 100 µM (inactive)
A549
  GI50: > 100 µM (inactive)
COLO 205
  GI50: > 100 µM (inactive)
RXF 393
  GI50: > 100 µM (inactive)
UACC-257
  GI50: > 100 µM (inactive)
Malme-3M
  GI50: > 100 µM (inactive)

## CC1(C)S[C@@H]2[C@H](NC(=O)[C@H](N)c3ccccc3)C(=O)N2[C@H]1C(=O)O [AMPICILLIN]
OVCAR-3
  GI50: > 100 µM (inactive)
SR
  GI50: > 100 µM (inactive)
PC-3
  GI50: > 100 µM (inactive)
HCC 2998
  GI50: > 100 µM (inactive)
SF-268
  GI50: > 100 µM (inactive)
OVCAR-5
  GI50: > 100 µM (inactive)
MOLT-4
  GI50: > 100 µM (inactive)
HOP-62
  GI50: > 100 µM (inactive)
DU-145
  GI50: > 100 µM (inactive)
SNB-19
  GI50: > 100 µM (inactive)
KM12
  GI50: > 100 µM (inactive)
BT-549
  GI50: > 100 µM (inactive)
HCT-116
  GI50: > 100 µM (inactive)
NCI-H460
  GI50: > 100 µM (inactive)
NCI-H522
  GI50: 40.1 µM (inactive)
HOP-92
  GI50: > 100 µM (inactive)
UO-31
  GI50: > 100 µM (inactive)
SN12C
  GI50: > 100 µM (inactive)
U-251
  GI50: > 100 µM (inactive)
T47D
  GI50: > 100 µM (inactive)
NCI-H23
  GI50: > 100 µM (inactive)
SNB-75
  GI50: > 100 µM (inactive)
MDA-MB-231
  GI50: > 100 µM (inactive)
MDA-MB-435
  GI50: > 100 µM (inactive)
MCF7
  GI50: > 100 µM (inactive)
NCI/ADR-RES
  GI50: > 100 µM (inactive)
EKVX
  GI50: > 100 µM (inactive)
HCT-15
  GI50: > 100 µM
OVCAR-8
  GI50: > 100 µM (inactive)
786-0
  GI50: > 100 µM (inactive)
SF-295
  GI50: > 100 µM (inactive)
RPMI-8226
  GI50: > 100 µM (inactive)
SF-539
  GI50: > 100 µM (inactive)
UACC-62
  GI50: > 100 µM (inactive)
Hs-578T
  GI50: 63.8 µM (inactive)
IGROV-1
  GI50: > 100 µM (inactive)
SK-MEL-2
  GI50: > 100 µM (inactive)
M14
  GI50: > 100 µM (inactive)
ACHN
  GI50: > 100 µM (inactive)
CCRF-CEM
  GI50: > 100 µM (inactive)
SK-MEL-28
  GI50: > 100 µM (inactive)
TK-10
  GI50: > 100 µM (inactive)
HT-29
  GI50: > 100 µM (inactive)
SK-MEL-5
  GI50: > 100 µM (inactive)
LOX IMVI
  GI50: > 100 µM (inactive)
CAKI-1
  GI50: > 100 µM (inactive)
SW-620
  GI50: > 100 µM (inactive)
HL-60
  GI50: > 100 µM (inactive)
A549
  GI50: > 100 µM (inactive)
COLO 205
  GI50: > 100 µM (inactive)
UACC-257
  GI50: > 100 µM (inactive)
